# From patent US12202843B2, “Muscarinic receptor agonists” (Nxera Pharma UK Limited, priority 2014, dated 2025)
# Experiments:
# Type in all cases: cell-based
# [1] = target: T1, human muscarinic M3 receptor (Homo sapiens, UniProt P20309); experiment: Alphascreen Surefire phospho-ERK1/2 functional assay, M3
# T1 construct: expressed in transfected cells
# Protocol: (§1) ERK1/2 phosphorylation is a downstream consequence of both Gq/11 and Gi/o protein coupled receptor activation, making it highly suitable for the assessment of M1, M3 (Gq/11 coupled) and M2, M4 receptors (Gi/o coupled), rather than using different assay formats for different receptor subtypes. CHO cells stably expressing the human muscarinic M1, M2, M3 or M4 receptor were plated (25K/well) onto 96-well tissue culture plates in MEM-alpha+10% dialysed FBS. Once adhered, cells were serum-starved overnight. Agonist stimulation was performed by the addition of 5 μL agonist to the cells for 5 min (37° C.). Media was removed and 50 μL of lysis buffer added. […] Plates were incubated for 2 h with gentle agitation in the dark and then read on a PHERAstar plate reader.
# (§2) pEC50 and Emax figures were calculated from the resulting data for each receptor subtype.
# [2] = target: T2, human muscarinic M4 receptor (Homo sapiens, UniProt P08173); experiment: Alphascreen Surefire phospho-ERK1/2 functional assay, M4; details: for EC50: CHO cells stably expressing human M4, read-out: pEC50 M4 (converted); for % Emax cf. ACh, M4: CHO cells stably expressing human M4, relative to ACh; for Emax: CHO, read-out: % Emax cf. ACh, M4, CHO cells stably expressing human M4, relative to ACh
# T2 construct: expressed in transfected cells
# T2 sequence (P08173 1-479): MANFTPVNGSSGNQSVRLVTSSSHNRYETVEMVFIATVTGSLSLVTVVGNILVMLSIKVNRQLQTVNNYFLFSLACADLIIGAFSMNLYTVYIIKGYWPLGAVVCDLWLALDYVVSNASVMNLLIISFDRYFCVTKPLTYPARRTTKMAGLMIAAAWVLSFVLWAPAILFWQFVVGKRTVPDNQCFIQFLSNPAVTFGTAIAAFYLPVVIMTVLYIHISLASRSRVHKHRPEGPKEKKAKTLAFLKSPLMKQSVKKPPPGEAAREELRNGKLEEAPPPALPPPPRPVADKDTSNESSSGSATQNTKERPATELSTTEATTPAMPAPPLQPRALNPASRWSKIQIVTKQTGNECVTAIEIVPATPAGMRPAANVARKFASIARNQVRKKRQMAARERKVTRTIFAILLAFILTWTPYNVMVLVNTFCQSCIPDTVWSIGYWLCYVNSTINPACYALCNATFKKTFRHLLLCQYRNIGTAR
# Protocol: as §1, §2
# [3] = target: T3, human muscarinic M1 receptor (Homo sapiens, UniProt P11229); experiment: Alphascreen Surefire phospho-ERK1/2 functional assay, M1; details: for EC50: CHO cells stably expressing human M1, read-out: pEC50 M1 (converted); for % Emax cf. ACh, M1: CHO cells stably expressing human M1, relative to ACh; for Emax: CHO, read-out: % Emax cf. ACh, M1, CHO cells stably expressing human M1, relative to ACh
# T3 sequence (P11229 1-460): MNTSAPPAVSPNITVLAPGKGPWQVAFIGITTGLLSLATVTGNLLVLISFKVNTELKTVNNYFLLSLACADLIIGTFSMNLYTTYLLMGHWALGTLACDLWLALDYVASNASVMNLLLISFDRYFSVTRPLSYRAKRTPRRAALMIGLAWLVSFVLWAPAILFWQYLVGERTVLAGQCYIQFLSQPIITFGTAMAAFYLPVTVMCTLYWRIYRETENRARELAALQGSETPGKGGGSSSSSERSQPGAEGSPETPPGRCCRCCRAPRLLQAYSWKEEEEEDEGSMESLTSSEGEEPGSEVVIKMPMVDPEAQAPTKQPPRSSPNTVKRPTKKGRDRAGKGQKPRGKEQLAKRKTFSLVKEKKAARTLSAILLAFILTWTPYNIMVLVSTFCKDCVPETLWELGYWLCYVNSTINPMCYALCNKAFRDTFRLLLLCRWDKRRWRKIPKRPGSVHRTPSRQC
# Protocol: as §1, §2
# [4] = target: T4, human muscarinic M2 receptor (Homo sapiens, UniProt P08172); experiment: Alphascreen Surefire phospho-ERK1/2 functional assay, M2
# T4 sequence (P08172 1-466): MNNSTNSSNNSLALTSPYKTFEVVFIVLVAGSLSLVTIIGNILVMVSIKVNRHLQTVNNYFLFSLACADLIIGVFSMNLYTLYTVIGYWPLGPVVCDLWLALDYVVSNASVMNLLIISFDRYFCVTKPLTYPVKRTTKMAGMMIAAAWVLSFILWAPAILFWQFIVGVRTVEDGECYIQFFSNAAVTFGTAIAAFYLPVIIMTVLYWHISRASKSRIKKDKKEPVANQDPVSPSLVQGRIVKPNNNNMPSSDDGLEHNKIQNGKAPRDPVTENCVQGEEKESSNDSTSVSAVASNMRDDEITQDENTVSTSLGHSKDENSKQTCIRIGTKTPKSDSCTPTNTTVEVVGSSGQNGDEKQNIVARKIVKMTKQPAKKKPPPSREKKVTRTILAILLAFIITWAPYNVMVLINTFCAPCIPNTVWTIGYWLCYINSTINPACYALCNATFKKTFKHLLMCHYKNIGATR
# Protocol: as §1, §2
# T1 sequence (P20309 whole entry): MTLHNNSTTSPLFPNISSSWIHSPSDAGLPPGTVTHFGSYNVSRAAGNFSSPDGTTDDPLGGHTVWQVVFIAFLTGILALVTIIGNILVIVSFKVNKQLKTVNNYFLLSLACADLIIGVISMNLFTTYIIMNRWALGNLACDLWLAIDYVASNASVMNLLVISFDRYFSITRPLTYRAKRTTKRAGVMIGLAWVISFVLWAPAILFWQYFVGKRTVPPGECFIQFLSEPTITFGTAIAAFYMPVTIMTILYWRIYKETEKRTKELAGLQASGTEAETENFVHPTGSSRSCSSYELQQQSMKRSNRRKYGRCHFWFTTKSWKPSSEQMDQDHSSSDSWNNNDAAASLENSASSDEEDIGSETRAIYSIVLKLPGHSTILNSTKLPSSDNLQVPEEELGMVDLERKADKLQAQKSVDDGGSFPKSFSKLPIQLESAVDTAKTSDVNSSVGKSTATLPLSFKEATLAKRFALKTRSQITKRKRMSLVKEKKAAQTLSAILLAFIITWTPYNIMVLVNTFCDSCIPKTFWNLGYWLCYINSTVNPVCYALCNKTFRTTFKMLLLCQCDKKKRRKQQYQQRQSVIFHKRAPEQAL
Structure (SMILES),EC50 [2] [nM],EC50 [3] [nM],Emax [2] [%],Emax [3] [%],also measured
"CCOC(=O)N1C2CCC1CC(N1CCC3(CC1)CNC(=O)O3)C2 (single isomer, unassigned) [Example 2-14 Isomer 2]",79.4,39.8,,,"EC50 ([1]; CHO cells stably expressing human M3, read-out: pEC50 M3 (converted)): > 20 µM; Emax ([1]; CHO, read-out: % Emax cf. ACh, M3, CHO cells stably expressing human M3, relative to ACh): 0%; % Emax cf. ACh, M4 [2]: 60%; % Emax cf. ACh, M1 [3]: 92%; EC50 ([4]; CHO cells stably expressing human M2, read-out: pEC50 M2 (converted)): > 20 µM; Emax ([4]; CHO, read-out: % Emax cf. ACh, M2, CHO cells stably expressing human M2, relative to ACh): 0%"
"CCOC(=O)N1C2CCC1CC(N1CCCC3(CC1)CNC(=O)O3)C2 (single isomer, unassigned) [Example 9-2 Isomer 2, ethyl 3-(2-oxo-1-oxa-3,8-diazaspiro[4.6]undec-8-yl)-8-azabicyclo[3.2.1]octane-8-carboxylate]",> 20000,> 20000,,,"% Emax cf. ACh, M4 ([2]; listed as 9-2 Isomer 2): 8%; % Emax cf. ACh, M1 ([3]; listed as 9-2 Isomer 2): 18%"
"CCOC(=O)N1CC2CCC1CC2N1CCC2(CC1)CNC(=O)O2 (single isomer, unassigned) [Example 3-2 Isomer 2, ethyl 5-(2-oxo-1-oxa-3,8-diazaspiro[4.5]dec-8-yl)-2-azabicyclo[2.2.2]octane-2-carboxylate]",398,100,,,"% Emax cf. ACh, M4 [2]: 36%; % Emax cf. ACh, M1 [3]: 127%"
"CCOC(=O)N1[C@@H]2CC[C@H]1CC(N1CCC3(CC1)OC(=O)NC3Cc1ccccn1)C2 (mixture of isomers) [Example 2-23, ethyl-3-(2-oxo-4-(pyridin-2-ylmethyl)-1-oxa-3,8-diazaspiro[4.5]decan-8-yl)-8-azabicyclo[3.2.1]octane-8-carboxylate]",> 20000,501,12,86,
"CCOC(=O)N1CC2CCC(C1)C2N1CCC2(CC1)CNC(=O)C2 (single isomer, unassigned) [Example 4-1 Isomer 2]",> 20000,501,3,36,
"CCOC(=O)N1C2CCC1CC(N1CCC3(CC1)OC(=O)NC3C)C2 (single isomer, unassigned) [Example 2-15 Isomer 1]",> 20000,100,10,101,
"CCOC(=O)N1CC2CCC1CC2N1CCC2(CC1)CNC(=O)O2 (single isomer, unassigned) [Example 3-2 Isomer 1, ethyl 5-(2-oxo-1-oxa-3,8-diazaspiro[4.5]dec-8-yl)-2-azabicyclo[2.2.2]octane-2-carboxylate]",1260,251,29,111,
"CCOC(=O)N1C2CCC1C(F)C(N1CCC3(CC1)CNC(=O)C3)C2 (single isomer, unassigned) [Example 2-11 Isomer 1]",1000,631,53,95,
"CCCC(=O)N1C2CCC1CC(N1CCC3(CC1)CNC(=O)C3)C2 (single isomer, unassigned) [Example 2-6 Isomer 2]",15800,501,32,35,
"CCOC(=O)N1C2CCC1CC(N1CCC3(CC1)OC(=O)NC3CC)C2 (single isomer, unassigned) [Example 2-16 Isomer 2]",200,631,,,"% Emax cf. ACh, M4 ([2]; listed as 2-16 Isomer 2): 51%; % Emax cf. ACh, M1 ([3]; listed as 2-16 Isomer 2): 68%"
"CCOC(=O)N1C2CCC1CC(N1CCC3(CC1)CNC(=O)O3)C2 (single isomer, unassigned) [Example 2-14 Isomer 1]",501,200,55,108,
"CCOC(=O)N1C2CCC1CC(N1CCC3(CC1)CC(=O)N(CC1CC1)C3)C2 (single isomer, unassigned) [Example 2-28 Isomer 2]",316,501,27,57,
"CCOC(=O)N1C2CCC1CC(N1CCCC3(CC1)CNC(=O)O3)C2 (single isomer, unassigned) [Example 9-2 Isomer 1, ethyl 3-(2-oxo-1-oxa-3,8-diazaspiro[4.6]undec-8-yl)-8-azabicyclo[3.2.1]octane-8-carboxylate]",> 20000,> 20000,,,"% Emax cf. ACh, M4 ([2]; listed as 9-2 Isomer 1): 13%; % Emax cf. ACh, M1 ([3]; listed as 9-2 Isomer 1): 23%"
"CCOC(=O)N1C2CCC1CC(N1CCC3(CC1)CC(=O)N(CC(C)C)C3)C2 (single isomer, unassigned) [Example 2-27 Isomer 2]",> 20000,398,14,38,
"O=C1CC2(CCN(C3CC4CCC(C3)N4C(=O)OCCF)CC2)CN1 (single isomer, unassigned) [Example 2-3 Isomer 1]",2000,398,,,"% Emax cf. ACh, M4 ([2]; listed as 2-3 Isomer 1): 47%; % Emax cf. ACh, M1 ([3]; listed as 2-3 Isomer 1): 85%"
"CC(C)OC(=O)N1C2CCC1CC(N1CCC3(CC1)CNC(=O)C3)C2 (single isomer, unassigned) [Example 2-33 Isomer 1]",200,31.6,20,,"% Emax cf. ACh, M1 ([3]; listed as 2-33 Isomer 1): 37%"
"CCSC(=O)N1C2CCC1CC(N1CCC3(CC1)CNC(=O)C3)C2 (single isomer, unassigned) [Example 2-35 Isomer 1]",> 20000,39.8,7,,"% Emax cf. ACh, M1 ([3]; listed as 2-35 Isomer 1): 24%"
"CCSC(=O)N1C2CCC1CC(N1CCC3(CC1)CNC(=O)C3)C2 (single isomer, unassigned) [Example 2-35 Isomer 2]",,794,,,"% Emax cf. ACh, M4 [2]: 10%; % Emax cf. ACh, M1 ([3]; listed as 2-35 Isomer 2): 50%"
"COC(=O)N1C2CCC1CC(N1CCC3(CC1)CNC(=O)C3)C2 (single isomer, unassigned) [Example 2-1 Isomer 2]",1580,631,25,72,
